The source of these data is patent publication US20170285010A1, “Analytical Methods and Arrays for Use in the Same” (SENZAGEN AB, priority 2014, published 2017).

One series concerns CD86. Kind of series: CD86 expression of MUTZ-3 cells following chemical stimulation (flow cytometry). It counts as cell-based, human. Conditions: MUTZ-3, 24 h stimulation, compared with vehicle/unstimulated cells, student's t-test p<0.05. A general note: In flow cytometry, cells or beads pass a laser one at a time.
A short description of series [1]: Max solubility of chemicals for establishing the GARD input concentration. As to conditions: reference compounds used during assay development (Table 1).
For series [2] the following is noted: occupational asthma and allergic contact dermatitis, ref. [64]; cited from earlier work.

Protocol for CD86: CD86 expression of MUTZ-3 cells following chemical stimulations. […] Statistical significance was determined by student's t-test, comparing each stimulation with its corresponding vehicle, with p<0.05 indicated by *.
Maintenance of cells, chemical stimulation of MUTZ-3 and all subsequent isolation of mRNA and preparation of cDNA were performed as previously described [41,42]. In short, a phenotypic control of MUTZ-3 was performed using flow cytometry prior to chemical stimulation to ensure cells were in an immature state. The following FITC-conjugated mouse monoclonal antibodies (mAbs) were used: CD1a (DakoCytomation, Glostrup, Denmark), CD34, CD86, HLA-DR, IgG1 (BD Biosciences, Franklin Lakes, N.J.). The following PE-conjugated mouse monoclonal antibodies were used: CD14 (DakoCytomation), CD54, CD80, IgG1 (BD Biosciences). Cell viability was determined using Propidium Iodide (BD Biosciences) staining. Samples were run on FACSCanto II instrument. Data was acquired using FACS Diva software (BD Biosciences) and analyzed using FCS Express V4 (De Novo Software, Los Angeles, Calif.). Gating was performed to exclude cell debris and non-viable cells based on forward- and side-scattering properties and quadrants established using isotype-controls. During chemical exposure, cells were seeded at 200.000 cells/ml in 24-well plates and exposed to chemical compound at the GARD input concentration. Stimulated cells were harvested after 24 h incubation at 37° C., 5% CO2 and RNA was isolated with TRIzol® reagent (Life Technologies, Carlsbad, Calif.) using standardized protocols provided by the manufacturer. In parallel, a control of the maturity state of the cells was performed by flow cytometric analysis of CD86.
Prior to chemical challenge, cells were quality controlled by measuring the cellular expression of common myeloid and dendritic cell markers using flow cytometry. These markers included CD1a, CD14, CD34, CD54, CD80, CD86 and HLA-DR.

Consider `[Cl][Pt-2]([Cl])([Cl])([Cl])([Cl])[Cl].[NH4+].[NH4+]` [Ammonium hexachloroplatinate], for which, in the series with CD86, the “Chemically induced up-regulation of CD86” value is “statistically significant”. Moreover, the Max solubility in series [1] was 35 µM. Turning to `O=c1n(CC2CO2)c(=O)n(CC2CO2)c(=O)n1CC1CO1` (stereo not drawn) [triglycidylisocyanurate], the “Sensitization in humans (OA, ACD)” value in series [2] is “cause both OA and ACD”.
